Measured values from US20200392116A1, “SUBSTITUTED HETEROCYCLES AS c-MYC TARGETING AGENTS” (NORTHWESTERN UNIVERSITY, priority 2019, published 2020).
Where two headings read alike, the source gives them in different places.

Experiments:
CMV reporter = CMV reporter assay (control reporter beside the Ebox reporter); format: cell-based
[1] = test system: MYC transcriptional activity (c-Myc E-box-luciferase reporter, MycCap cells); assay: MYC E-box luciferase reporter assay; format: cell-based; conditions: Mus musculus, Myc-CaP
Experimental: To test the compounds, we evaluated the in silico hits in a MYC E-Box luciferase reporter assay to measure the effects of these compounds (referred to as Min-1 to Min-32) on MYC transcriptional activity. […] (See FIG. 2).
MycCap cells stably expressing luciferase with CMV promoter (MycCap-luc) or c-Myc E-box-luciferase reporter (MycCap Ebox-luc) were plated at 10000 cells per well in 96 well white-wall plate. Serial dilutions of 361 were treated next day. At 4 hours of treatment, luminescence signal was determined immediately after adding 150 μg/ml of Luciferin to the well. (See FIG. 12).

[2] = given as numeric bound, read-out: Ebox reporter: IC50
[3] = class symbols, read-out: Eboc reporter IC50
[4] = class symbols, read-out: Ebox reporter: IC50

| SMILES | IC50 (CMV reporter) | IC50 [1, 2] | IC50 (CMV reporter; class symbols) | IC50 [1, 3] | IC50 [1, 4] |
| --- | --- | --- | --- | --- | --- |
| COCCOc1ccc(-c2cc(C(F)(F)F)n(C)n2)c(O)c1-c1ccc(Cl)c(C(F)(F)F)c1 [NUCC-0202426] | > 50 µM | > 50 µM |  |  |  |
| CN(C(=O)c1ccc(-c2cc(C(F)(F)F)nn2C)c(O)c1)c1ccc(Cl)c(C(F)(F)F)c1 [NUCC-0202990] |  |  | > 50 µM | 10 to 50 µM |  |
| COc1ccc(-c2cc(C(F)(F)F)nn2C)c(O)c1-c1ccc(Cl)c(C(F)(F)F)c1 [NUCC-0202429] | > 50 µM |  |  |  | < 5 µM |
| COc1ccc(C(=O)N(Cc2ccc(Cl)cc2)c2ccc(-c3cc(C(F)(F)F)n(C)n3)c(O)c2)cc1 [NUCC-0202718] | > 50 µM | > 50 µM |  |  |  |
| CC(Oc1ccc(-c2cc(C(F)(F)F)nn2C)c(O)c1-c1ccc(Cl)c(C(F)(F)F)c1)c1ccc(Cl)cc1 (stereo not drawn) [NUCC-0202418] | > 50 µM |  |  |  | 5 to 10 µM |
| Cn1nc(C(F)(F)F)cc1-c1ccc(N(Cc2ccc(Cl)cc2)C(=O)c2cccc(S(C)(=O)=O)c2)cc1O [NUCC-0202705] | > 50 µM |  |  |  | < 5 µM |
| Cn1nc(-c2ccc(N(Cc3ccc(Cl)cc3)C(=O)c3ccc(Cl)cc3)cc2O)cc1C(F)(F)F [NUCC-0202694] | > 50 µM | > 50 µM |  |  |  |
| Cn1nc(C(F)(F)F)cc1-c1cnc(OCc2ccc(Cl)cc2)c(-c2ccc(Cl)c(C(F)(F)F)c2)c1O [NUCC-0202686] | 31 µM |  |  |  | < 5 µM |
| C=C(C)c1cc(-c2ccc(OCc3ccc(Cl)cc3)c(-c3ccc(C)c(C)c3)c2C)nn1C [NUCC-0202528] | 28 µM |  |  |  | 10 to 50 µM |
| Cn1nc(-c2ccc(N(Cc3ccc(Cl)cc3)C(=O)c3cccc(S(C)(=O)=O)c3)cc2O)cc1C(F)(F)F [NUCC-0202721] | > 50 µM | > 50 µM |  |  |  |
| O=C(Nc1ccc(Cl)c(C(F)(F)F)c1)c1ccc(-c2cc(C(F)(F)F)n[nH]2)c(O)c1 [NUCC-0202992] |  |  | 10 to 50 µM | 5 to 10 µM |  |
| Cn1nc(-c2ccc(N(Cc3ccc(Cl)cc3)C(=O)c3ccc4nccn4c3)cc2O)cc1C(F)(F)F [NUCC-0202725] | > 50 µM |  |  |  | 10 to 50 µM |
| Cn1nc(C(F)(F)F)cc1-c1ccc(N(Cc2ccc(Cl)cc2)C(=O)c2ccc(Cl)cc2C(F)(F)F)cc1O [NUCC-0202709] | > 50 µM |  |  |  | 5 to 10 µM |
| Cn1nc(C(F)(F)F)c(Oc2ccc(F)c(Cl)c2)c1-c1ccc(OCc2ccc(Cl)cc2)cc1O [NUCC-0202637] | 43 µM |  |  |  | 5 to 10 µM |
| Oc1cc(CNc2ccc(Cl)c(C(F)(F)F)c2)ccc1-c1cc(C(F)(F)F)n[nH]1 [NUCC-0202993] |  |  | 10 to 50 µM | 5 to 10 µM |  |
| O=C(c1ccc(C(F)(F)F)c(Cl)c1)N(Cc1ccc(Cl)cc1)c1ccc(-c2cc(C(F)(F)F)n[nH]2)c(O)c1 [NUCC-0202434] | 40 µM |  |  |  | < 5 µM |
| CC(Oc1ccc(-c2cc(C(F)(F)F)n(C)n2)c(O)c1-c1ccc(Cl)c(C(F)(F)F)c1)c1ccc(Cl)cc1 (stereo not drawn) [NUCC-0202437] | > 50 µM | > 50 µM |  |  |  |
| Cn1nc(-c2ccc(OCc3ccc(Cl)cc3)c(-c3ccc(Cl)c(C(F)(F)F)c3)c2O)cc1C(=O)O [NUCC-0202525] | > 50 µM |  |  |  | 10 to 50 µM |
| Cn1nc(-c2ccc(C(=O)Nc3ccc(Cl)c(C(F)(F)F)c3)cc2O)cc1C(F)(F)F [NUCC-0202985] |  |  | > 50 µM | > 50 µM |  |
| COc1cccc(C(=O)N(Cc2ccc(Cl)cc2)c2ccc(-c3cc(C(F)(F)F)nn3C)c(O)c2)c1 [NUCC-0202698] | > 50 µM |  |  |  | 5 to 10 µM |
| Cn1nc(-c2ccc(N(Cc3ccc(Cl)cc3)C(=O)c3ccccc3F)cc2O)cc1C(F)(F)F [NUCC-0202716] | > 50 µM | > 50 µM |  |  |  |
| COc1c(C(F)(F)F)nn(C)c1-c1ccc(OCc2ccc(Cl)cc2)cc1O [NUCC-0202651] | > 50 µM |  |  |  | 5 to 10 µM |
| NC(=O)c1cc(-c2ccc(OCc3ccc(Cl)cc3)c(-c3ccc(Cl)c(C(F)(F)F)c3)c2O)[nH]n1 [NUCC-0202521] | 34 µM |  |  |  | 10 to 50 µM |
| Oc1cc(OCc2ccc(Cl)cc2)ccc1-c1[nH]nc(C(F)(F)F)c1Oc1ccc(Cl)c(F)c1 [NUCC-0202536] | 44 µM |  |  |  | 5 to 10 µM |
